{
  "source": "patent US9408388B2",
  "about": "(Dow Global Technologies LLC, priority 2013, dated 2016)",
  "key": {"[1]": {"tested_on": "Stichococcus bacillaris SAG 379-1a CCAP 379/1a", "assay": "Algal efficacy testing of dry paint film (modified ASTM 5589, 6-well plates)", "assay_type": "cell-based", "conditions": "4 weeks", "experimental": "(§1) Slurries containing 34.3% carbendazim were post added to a white, acrylic/silicone based outdoor paint free of biocides to give a total active ingredient concentration of 10000 and 1000 ppm respectively. These paints were then diluted with an antimicrobial free acrylic/silicone based paint and mixed to prepare targeted concentrations of antimicrobial compounds for the testing. The total biocides concentrations tested were 125, 250, 500, 1000, 2000 and 5000 ppm. After biocides addition or dilution, the paints were mixed 90 seconds with the horse power shaker (AXEL 75M3372/Agitateur SO-10MI) until uniformity was achieved. Paints containing different antimicrobial compounds at the same levels were mixed together in order to obtain the desired ratio of antimicrobial compounds. After one day, the paints were applied to Schleicher & Schuell filter paper at 280 μm wet film thickness and dried for 3 days at room temperature avoiding direct exposure to sunlight. Square discs (1.6 cm×1.6 cm) were cut out from each panel and were used as the substrate for algal efficacy tests. This sample size allowed for an agar border when the sample disc was placed into the well of the test plate.\n(§2) Algal efficacy was tested according to modified ASTM 5589 which is a standard accelerated test method for determining resistance of various coatings (including paints) to algal defacement. To accommodate for high-throughput screening, this method was scaled down from petri dishes to 6-well plates. Bold Modified Basal Freshwater Nutrient Solution was used as growth medium. A single coated filter paper coupon was placed with a pair of sterile forceps at the center of the agar plug (on top) with the painted surface facing upwards. Algal inoculums were prepared by mixing equal concentrations (1×10^6 cfu/ml) and equal volumes of exponentially growing algae cultures.\n(§3) Each well that contains a tested coupon was inoculated with 1750 μl of algal suspensions (1×10^6 cfu/ml) making sure that the whole surface (paint film as well as the agar surrounding it) was evenly covered. The plates were incubated at room temp (21° C. -25° C.) with cyclic exposure to light and dark phases, for a period of four weeks.\n(§4) At the end of the four week incubation period, the samples were scored for percent inhibition regarding visible algal growth compared to the blank sample (0% inhibition).\n(§5) The SI is calculated based on F. C. Kull et.\n(§6) The minimal targeted inhibition was set at 75%, meaning a coupon with at least 75% algal growth inhibition was considered as a pass."}, "Chlorella sp. ATCC 7516": {"tested_on": "Chlorella sp. ATCC 7516", "assay": "Algal efficacy testing of dry paint film (modified ASTM 5589, 6-well plates)", "assay_type": "cell-based", "conditions": "4 weeks", "experimental": "as §1, §2, §3, §4, §5, §6"}, "[2]": {"conditions": "pass level 75% inhibition, total biocide in liquid paint"}},
  "data": [
    {"smiles": "COC(=O)Nc1nc2ccccc2[nH]1", "note": "[Carbendazim, methylbenzimidazol-2-ylcarbamate]", "values": [
      {"measurement": "Total conc (concentration used for SI; lowest passing level or highest level without pass)", "setting": "[1]; [2]", "result": 2000, "unit": "ppm"},
      {"measurement": "inhibition at 2000 ppm", "setting": "[1]; Stichococcus bacillaris, 672 h, total conc 2000 ppm, visible algal growth vs blank", "result": 45, "unit": "%"},
      {"measurement": "Total conc (concentration used for SI; lowest passing level or highest level without pass)", "setting": "Chlorella sp. ATCC 7516; [2]", "result": 2000, "unit": "ppm"},
      {"measurement": "inhibition at 2000 ppm", "setting": "Chlorella sp. ATCC 7516; 672 h, total conc 2000 ppm, visible algal growth vs blank", "result": 45, "unit": "%"}
    ]},
    {"smiles": "O=c1[nH]c2c(c(=O)n1C1CCCCC1)CCC2", "note": "[Lenacil, 3-cyclohexyl-1,5,6,7-tetrahydrocyclopentapyrimidine-2,4(3H)-dione]", "values": [
      {"measurement": "inhibition at 5000 ppm", "setting": "[1]; Stichococcus bacillaris, 672 h, total conc 5000 ppm, visible algal growth vs blank", "result": 65, "unit": "%"},
      {"measurement": "inhibition at 5000 ppm", "setting": "Chlorella sp. ATCC 7516; 672 h, total conc 5000 ppm, visible algal growth vs blank", "result": 45, "unit": "%"}
    ]}
  ]
}
